Results: patent US8492520B2, “Binding epitopes for G250 antibody” (Wilex AG, priority 2007, dated 2013)

Test system: G250 antibody
Experiment: conformational epitope mapping of carbonic anhydrase IX peptide sections on scaffolds, binding to G250 antibody
Conditions: core sequences shared by the best-binding peptides
Description: Short peptide sections of CA-IX which bind to the G250 antibody were determined by means of conformational epitope mapping of carbonic anhydrase using the scaffolds shown in FIG. 2. The following 15 sequences were identified as peptide sections having the highest binding capacity: […]

recognition by G250 antibody (rank of epitope sequence): dominantly recognized
Sequence: LSTAFARV [SEQ ID NO:1]
